Measurements reported in patent US12655130B2 (ASSEMBLY BIOSCIENCES, INC., priority 2020, dated 2026).

Tested on: HBV viral load (viral production from HepAD38 cells)
Assay: Activity of test compounds on viral production from HepAD38 cells (viral load by qPCR of HBV core sequence)
Assay type: cell-based
Details: Hepatitis B virus, HePAD38, 120 h, viral load lowering, 5 days, qPCR of supernatant, read-out: VL HepAD38 EC50 range
Method in brief: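 EC50 and CC50 come from four-parameter logistic fits: HBV core DNA in supernatant by TaqMan qPCR against DNA standards, normalised to DMSO controls, and cell viability by CellTiter-Glo. Cells were plated at 50,000/well without tetracycline (2% FBS) and exposed to compounds (highest 10 μM) for 5 days, 37 °C.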

SMILES	EC50
Cn1cnc(C2CC3CC(O)(c4nn(C)c(C(F)(F)F)c4Br)CC3C2)c1C(=O)Nc1ccc(F)c(Cl)c1 (stereo not drawn) [Example 142, 4-(5-(4-Bromo-1-methyl-5-(trifluoromethyl)-1H-pyrazol-3-yl)-5-hydroxyoctahydropentalen-2-yl)-N-(3-chloro-4-fluorophenyl)-1-methyl-1H-imidazole-5-carboxamide]	< 10 nM
Cn1cnc(C2CC3CC(O)(c4[nH]ncc4Cl)CC3C2)c1C(=O)Nc1ccc(F)c(Cl)c1 (stereo not drawn) [Example 143, 4-(5-(4-Chloro-1H-pyrazol-5-yl)-5-hydroxyoctahydropentalen-2-yl)-N-(3-chloro-4-fluorophenyl)-1-methyl-1H-imidazole-5-carboxamide]	< 10 nM
Cc1cc(C2(O)CC3CC(c4ncn(C)c4C(=O)Nc4ccc(F)c(Cl)c4)CC3C2)[nH]n1 (stereo not drawn) [Example 144, N-(3-Chloro-4-fluorophenyl)-4-(5-hydroxy-5-(3-methyl-1H-pyrazol-5-yl)octahydropentalen-2-yl)-1-methyl-1H-imidazole-5-carboxamide]	< 10 nM
Cn1cnc(C2CC3CC(O)(c4c(C(F)F)cnn4C)CC3C2)c1C(=O)Nc1ccc(F)c(Cl)c1 (stereo not drawn) [Example 145, N-(3-Chloro-4-fluorophenyl)-4-(5-(4-(difluoromethyl)-1-methyl-1H-pyrazol-5-yl)-5-hydroxyoctahydropentalen-2-yl)-1-methyl-1H-imidazole-5-carboxamide]	< 10 nM
Cn1cnc(C2CC3CC(O)(c4cc([N+](=O)[O-])n[nH]4)CC3C2)c1C(=O)Nc1ccc(F)c(Cl)c1 (stereo not drawn) [Example 146, N-(3-Chloro-4-fluorophenyl)-4-(5-hydroxy-5-(3-nitro-1H-pyrazol-5-yl)octahydropentalen-2-yl)-1-methyl-1H-imidazole-5-carboxamide]	< 10 nM
Cn1cnc(C2CC3CC(O)(c4cnn(C)c4C(F)F)CC3C2)c1C(=O)Nc1ccc(F)c(Cl)c1 (stereo not drawn) [Example 147, N-(3-Chloro-4-fluorophenyl)-4-(5-(5-(difluoromethyl)-1-methyl-1H-pyrazol-4-yl)-5-hydroxyoctahydropentalen-2-yl)-1-methyl-1H-imidazole-5-carboxamide]	< 10 nM
Cn1cnc(C2CC3CC(O)(c4[nH]ncc4F)CC3C2)c1C(=O)Nc1ccc(F)c(Cl)c1 (stereo not drawn) [Example 148, N-(3-Chloro-4-fluorophenyl)-4-(5-(4-fluoro-1H-pyrazol-5-yl)-5-hydroxyoctahydropentalen-2-yl)-1-methyl-1H-imidazole-5-carboxamide]	< 10 nM
Cn1cnc(C2CC3CC(O)(c4[nH]ncc4C(F)(F)F)CC3C2)c1C(=O)Nc1ccc(F)c(Cl)c1 (stereo not drawn) [Example 149, N-(3-Chloro-4-fluorophenyl)-4-(5-hydroxy-5-(4-(trifluoromethyl)-1H-pyrazol-5-yl)octahydropentalen-2-yl)-1-methyl-1H-imidazole-5-carboxamide]	< 10 nM
Cn1cnc(C2CC3CC(O)(c4c[nH]nc4C(F)(F)F)CC3C2)c1C(=O)Nc1ccc(F)c(Cl)c1 (stereo not drawn) [Example 150, N-(3-Chloro-4-fluorophenyl)-4-(5-hydroxy-5-(3-(trifluoromethyl)-1H-pyrazol-4-yl)octahydropentalen-2-yl)-1-methyl-1H-imidazole-5-carboxamide]	< 10 nM
CCn1cc(C2(O)CC3CC(c4ncn(C)c4C(=O)Nc4ccc(F)c(Cl)c4)CC3C2)c(C(F)(F)F)n1 (stereo not drawn) [Example 151, N-(3-Chloro-4-fluorophenyl)-4-(5-(1-ethyl-3-(trifluoromethyl)-1H-pyrazol-4-yl)-5-hydroxyoctahydropentalen-2-yl)-1-methyl-1H-imidazole-5-carboxamide]	< 10 nM
CCn1nc(C(F)F)cc1C1(O)CC2CC(c3ncn(C)c3C(=O)Nc3ccc(F)c(Cl)c3)CC2C1 (stereo not drawn) [Example 152, N-(3-Chloro-4-fluorophenyl)-4-(5-(3-(difluoromethyl)-1-ethyl-1H-pyrazol-5-yl)-5-hydroxyoctahydropentalen-2-yl)-1-methyl-1H-imidazole-5-carboxamide]	< 10 nM
CC(C)n1nc(C(F)F)cc1C1(O)CC2CC(c3ncn(C)c3C(=O)Nc3ccc(F)c(Cl)c3)CC2C1 (stereo not drawn) [Example 153, N-(3-Chloro-4-fluorophenyl)-4-(5-(3-(difluoromethyl)-1-isopropyl-1H-pyrazol-5-yl)-5-hydroxyoctahydropentalen-2-yl)-1-methyl-1H-imidazole-5-carboxamide]	< 10 nM
CC(C)n1cc(Cl)c(C2(O)CC3CC(c4ncn(C)c4C(=O)Nc4ccc(F)c(Cl)c4)CC3C2)n1 (stereo not drawn) [Example 154, 4-(5-(4-Chloro-1-isopropyl-1H-pyrazol-3-yl)-5-hydroxyoctahydropentalen-2-yl)-N-(3-chloro-4-fluorophenyl)-1-methyl-1H-imidazole-5-carboxamide]	< 10 nM
Cn1cnc(C2CC3CC(O)(Cc4cc(C(F)(F)F)nn4C)CC3C2)c1C(=O)Nc1ccc(F)c(Cl)c1 (stereo not drawn) [Example 155, N-(3-Chloro-4-fluorophenyl)-4-(5-hydroxy-5-((1-methyl-3-(trifluoromethyl)-1H-pyrazol-5-yl)methyl)octahydropentalen-2-yl)-1-methyl-1H-imidazole-5-carboxamide]	< 10 nM
Cn1cc(C(F)(F)F)c(C2(O)CC3CC(c4ncn(C)c4C(=O)Nc4ccc(F)c(Cl)c4)CC3C2)n1 (stereo not drawn) [Example 156, N-(3-Chloro-4-fluorophenyl)-4-(5-hydroxy-5-(1-methyl-4-(trifluoromethyl)-1H-pyrazol-3-yl)octahydropentalen-2-yl)-1-methyl-1H-imidazole-5-carboxamide]	< 10 nM
CC(C)n1cc(C2(O)CC3CC(c4ncn(C)c4C(=O)Nc4ccc(F)c(Cl)c4)CC3C2)c(C(F)(F)F)n1 (stereo not drawn) [Example 157, N-(3-Chloro-4-fluorophenyl)-4-(5-hydroxy-5-(1-isopropyl-3-(trifluoromethyl)-1H-pyrazol-4-yl)octahydropentalen-2-yl)-1-methyl-1H-imidazole-5-carboxamide]	< 10 nM
CC(C)n1ncc(C2(O)CC3CC(c4ncn(C)c4C(=O)Nc4ccc(F)c(Cl)c4)CC3C2)c1C(F)(F)F (stereo not drawn) [Example 158, N-(3-Chloro-4-fluorophenyl)-4-(5-hydroxy-5-(1-isopropyl-5-(trifluoromethyl)-1H-pyrazol-4-yl)octahydropentalen-2-yl)-1-methyl-1H-imidazole-5-carboxamide]	< 10 nM
CCn1cc(C(F)(F)F)c(C2(O)CC3CC(c4ncn(C)c4C(=O)Nc4ccc(F)c(Cl)c4)CC3C2)n1 (stereo not drawn) [Example 159, N-(3-Chloro-4-fluorophenyl)-4-(5-(1-ethyl-4-(trifluoromethyl)-1H-pyrazol-3-yl)-5-hydroxyoctahydropentalen-2-yl)-1-methyl-1H-imidazole-5-carboxamide]	< 10 nM
CC(C)n1cc(C(F)(F)F)c(C2(O)CC3CC(c4ncn(C)c4C(=O)Nc4ccc(F)c(Cl)c4)CC3C2)n1 (stereo not drawn) [Example 160, N-(3-Chloro-4-fluorophenyl)-4-(5-hydroxy-5-(1-isopropyl-4-(trifluoromethyl)-1H-pyrazol-3-yl)octahydropentalen-2-yl)-1-methyl-1H-imidazole-5-carboxamide]	< 10 nM
CCC(C)n1nc(N)cc1C1(O)CC2CC(c3ncn(C)c3C(=O)Nc3ccc(F)c(Cl)c3)CC2C1 (stereo not drawn) [Example 161, 4-(5-(3-Amino-1-(sec-butyl)-1H-pyrazol-5-yl)-5-hydroxyoctahydropentalen-2-yl)-N-(3-chloro-4-fluorophenyl)-1-methyl-1H-imidazole-5-carboxamide]	< 10 nM
CCn1cc(C2(O)CC3CC(c4ncn(C)c4C(=O)Nc4ccc(F)c(Cl)c4)CC3C2)c(C(F)F)n1 (stereo not drawn) [Example 162, N-(3-Chloro-4-fluorophenyl)-4-(5-(3-(difluoromethyl)-1-ethyl-1H-pyrazol-4-yl)-5-hydroxyoctahydropentalen-2-yl)-1-methyl-1H-imidazole-5-carboxamide]	< 10 nM
CC(=O)Nc1cc(C2(O)CC3CC(c4ncn(C)c4C(=O)Nc4ccc(F)c(Cl)c4)CC3C2)n(C)n1 (stereo not drawn) [Example 163, 4-(5-(3-Acetamido-1-methyl-1H-pyrazol-5-yl)-5-hydroxyoctahydropentalen-2-yl)-N-(3-chloro-4-fluorophenyl)-1-methyl-1H-imidazole-5-carboxamide]	< 10 nM
CC(C)n1nc([N+](=O)[O-])cc1C1(O)CC2CC(c3ncn(C)c3C(=O)Nc3ccc(F)c(Cl)c3)CC2C1 (stereo not drawn) [Example 164, N-(3-Chloro-4-fluorophenyl)-4-(5-hydroxy-5-(1-isopropyl-3-nitro-1H-pyrazol-5-yl)octahydropentalen-2-yl)-1-methyl-1H-imidazole-5-carboxamide]	< 10 nM
CC(C)Cn1nc([N+](=O)[O-])cc1C1(O)CC2CC(c3ncn(C)c3C(=O)Nc3ccc(F)c(Cl)c3)CC2C1 (stereo not drawn) [Example 165, N-(3-Chloro-4-fluorophenyl)-4-(5-hydroxy-5-(1-isobutyl-3-nitro-1H-pyrazol-5-yl)octahydropentalen-2-yl)-1-methyl-1H-imidazole-5-carboxamide]	< 10 nM
CC(=O)Nc1cc(C2(O)CC3CC(c4ncn(C)c4C(=O)Nc4ccc(F)c(Cl)c4)CC3C2)n(C(C)C)n1 (stereo not drawn) [Example 166, 4-(5-(3-Acetamido-1-isopropyl-1H-pyrazol-5-yl)-5-hydroxyoctahydropentalen-2-yl)-N-(3-chloro-4-fluorophenyl)-1-methyl-1H-imidazole-5-carboxamide]	< 10 nM
CCn1nc(N)c(Cl)c1C1(O)CC2CC(c3ncn(C)c3C(=O)Nc3ccc(F)c(Cl)c3)CC2C1 (stereo not drawn) [Example 168, 4-(5-(3-Amino-4-chloro-1-ethyl-1H-pyrazol-5-yl)-5-hydroxyoctahydropentalen-2-yl)-N-(3-chloro-4-fluorophenyl)-1-methyl-1H-imidazole-5-carboxamide]	10 to 50 nM
Cn1cnc(C2CC3CC(O)(c4n[nH]cc4C(F)F)CC3C2)c1C(=O)Nc1ccc(F)c(Cl)c1 (stereo not drawn) [Example 169, N-(3-Chloro-4-fluorophenyl)-4-(5-(4-(difluoromethyl)-1H-pyrazol-3-yl)-5-hydroxyoctahydropentalen-2-yl)-1-methyl-1H-imidazole-5-carboxamide]	< 10 nM
